According to patent US5705508A, “Anti-tumor compounds, pharmaceutical compositions, methods for preparation thereof and for treatment” (priority 1995, dated 1998):
“Also recorded” adds a separate entry of the source. Where two headings read alike, the source gives them in different places.

How the values were obtained:
[1] = tested on: MCF7-R (adriamycin resistant breast cancer); test: Anticancer activity, inhibition of cell proliferation, MCF7-R (adriamycin resistant breast); type: cell-based; conditions: Homo sapiens, MCF7R, read-out: IC50, MCF7-R
Experimental: (§1) Compounds SB-T-101131, SB-T-101133, SB-T-101134, SB-T-10114, SB-T-101141, SB-T-101142, SB-T-101143, SB-T-101144, SB-T-101146, SB-T-101151 and SB-T-101161 were prepared according to the protocols described in Examples 59 and 60 above. These compounds were evaluated for cancer activity against human cancer cell lines of A121 (ovarian cancer), A549 (non-small cell lung cancer), HT-29 (colon cancer), MCF7 (breast cancer), and MCF7-R (adriamycin resistant breast cancer).
(§2) ^a IC50 represents the concentration that inhibits 50% of cell
(§3) proliferation. ^b MCF7R = mammary carcinoma cells 180 fold resistant
(§4) The cytotoxicities of the new taxanes shown in FIG. 1 hereto and listed in Table 1 were evaluated in vitro against human cancer cell lines according to methods more particularly described in Ojima, I., et al., "Structure--Activity Relationships of New Taxoids Derived from 14β-Hydroxy-10-Deacetyl/Baccatin III," Journal of Medicinal Chemistry, 37, 1408-1410 (1994) and Ojima, I., et al., "Synthesis and Biological Activity of 14-hydroxydocetaxel," Bioorganic and Medicinal Chemistry Letters, 4, 1571-1576 (1994) the contents of which are incorporated herein by reference as if set forth in full.

HT-29 (colon cancer) = test: Anticancer activity, inhibition of cell proliferation, HT-29 (colon); type: cell-based; conditions: Homo sapiens
Experimental: as §1, with “cancer). Table 1 below illustrates the activity of these compounds as IC50 values in a nM concentration.” for “cancer).”
(§5) […] ACTIVITY OF NEW TAXANES (IC50 nM).
as §2, §3, §4

MCF7 (breast cancer) = test: Anticancer activity, inhibition of cell proliferation, MCF7 (breast); type: cell-based; conditions: Homo sapiens
Experimental: as §1, with “cancer). Table 1 below illustrates the activity of these compounds as IC50 values in a nM concentration.” for “cancer).”
as §5, §2, §3, §4

A121 (ovarian cancer) = test: Anticancer activity, inhibition of cell proliferation, A121 (ovarian); type: cell-based; conditions: Homo sapiens
Experimental: as §1, with “cancer). Table 1 below illustrates the activity of these compounds as IC50 values in a nM concentration.” for “cancer).”
as §5, §2, §3, §4

[2] = tested on: A549 (non-small cell lung cancer); test: Anticancer activity, inhibition of cell proliferation, A549 (NSCLC); type: cell-based; conditions: Homo sapiens
Experimental: as §1, with “cancer). Table 1 below illustrates the activity of these compounds as IC50 values in a nM concentration.” for “cancer).”
as §5, §2, §3, §4

[3] = aqueous media, cited from earlier work
[4] = compared with Taxol; listed as Taxotere; cited from earlier work
[5] = clinical trials; cited from earlier work
different cancers = conditions: background statement; cited from earlier work
[6] = concentration that inhibits 50% of cell proliferation, mammary carcinoma cells 180 fold resistant to adriamycin
[7] = concentration that inhibits 50% of cell proliferation, HT-29 (colon), read-out: IC50, HT-29 (colon)
[8] = concentration that inhibits 50% of cell proliferation, MCF7 (breast), read-out: IC50, MCF7 (breast)
[9] = concentration that inhibits 50% of cell proliferation, A121 (ovarian), read-out: IC50, A121 (ovarian)
[10] = concentration that inhibits 50% of cell proliferation, A549 (NSCLC), read-out: IC50, A549 (NSCLC)

## CC(=O)OC12COC1CC(O)C1(C)C(=O)C(OC(=O)C3CC3)C3=C(C)C(OC(=O)C(O)C(CC(C)C)NC(=O)OC(C)(C)C)C4OC(=O)OC4(C(OC(=O)c4ccccc4)C21)C3(C)C (stereo not drawn) [SB-T-101133]
[1]; [6]
  IC50: 22 nM
HT-29 (colon cancer); [7]
  IC50: 3.3 nM
MCF7 (breast cancer); [8]
  IC50: 0.7 nM
A121 (ovarian cancer); [9]
  IC50: 1.1 nM
[2]; [10]
  IC50: 1.2 nM

## CC(=O)O[C@@]12CO[C@@H]1C[C@H](O)[C@@]1(C)C(=O)[C@H](O)C3=C(C)[C@@H](OC(=O)[C@H](O)[C@@H](NC(=O)OC(C)(C)C)c4ccccc4)C[C@@](O)([C@@H](OC(=O)c4ccccc4)[C@H]21)C3(C)C [Docetaxel]
HT-29 (colon cancer); [7]
  IC50: 1.2 nM
MCF7 (breast cancer); [8]
  IC50: 1 nM
[3]
  water solubility: somewhat improved water solubility
A121 (ovarian cancer); [9]
  IC50: 1.2 nM
[4]
  bioavailability / pharmacological properties: better pharmacological properties than Taxol; also recorded: better bioavailability
[2]; [10]
  IC50: 1 nM
[5]
  side effects: mouth sores and a plunge in white blood cell count
Different cancers
  cytotoxicity and antitumor activity: antitumor activity superior to Taxol

## CC(=O)OC12COC1CC(O)C1(C)C(=O)C(OC(=O)N(C)C)C3=C(C)C(OC(=O)C(O)C(CC(C)C)NC(=O)OC(C)(C)C)C4OC(=O)OC4(C(OC(=O)c4ccccc4)C21)C3(C)C (stereo not drawn) [SB-T-101134]
[1]
  IC50: 22 nM
HT-29 (colon cancer); HT-29, read-out: IC50, HT-29 (colon)
  IC50: 1.3 nM
MCF7 (breast cancer); MCF7, read-out: IC50, MCF7 (breast)
  IC50: 0.6 nM
A121 (ovarian cancer); A121, read-out: IC50, A121 (ovarian)
  IC50: 0.6 nM
[2]; A549, read-out: IC50, A549 (NSCLC)
  IC50: 0.6 nM

## CC(=O)OC12COC1CC(O)C1(C)C(=O)C(OC(=O)N(C)C)C3=C(C)C(OC(=O)C(O)C(C=C(C)C)NC(=O)OC(C)(C)C)C4OC(=O)OC4(C(OC(=O)c4ccccc4)C21)C3(C)C (stereo not drawn) [SB-T-101144]
[1]; [6]
  IC50: 22 nM
HT-29 (colon cancer); [7]
  IC50: 1.2 nM
MCF7 (breast cancer); [8]
  IC50: 0.2 nM
A121 (ovarian cancer); [9]
  IC50: 0.7 nM
[2]; [10]
  IC50: 0.6 nM

## CC(=O)O[C@H]1C(=O)[C@@]2(C)[C@H]([C@H](OC(=O)c3ccccc3)[C@]34OC(=O)O[C@H]3[C@H](OC(=O)[C@H](O)[C@H](CC(C)C)NC(=O)OC(C)(C)C)C(C)=C1C4(C)C)[C@]1(OC(C)=O)CO[C@@H]1C[C@@H]2O [SB-T-101131]
[1]; [6]
  IC50: 36 nM
HT-29 (colon cancer); [7]
  IC50: 1.5 nM
MCF7 (breast cancer); [8]
  IC50: 1.1 nM
A121 (ovarian cancer); [9]
  IC50: 1.2 nM
[2]; [10]
  IC50: 0.7 nM

## CC(=O)OC12COC1CC(O)C1(C)C(=O)C(OC(=O)C3CC3)C3=C(C)C(OC(=O)C(O)C(C=C(C)C)NC(=O)OC(C)(C)C)C4OC(=O)OC4(C(OC(=O)c4ccccc4)C21)C3(C)C (stereo not drawn) [SB-T-101143]
[1]; [6]
  IC50: 24 nM
HT-29 (colon cancer); [7]
  IC50: 1 nM
MCF7 (breast cancer); [8]
  IC50: 0.2 nM
A121 (ovarian cancer); [9]
  IC50: 0.5 nM
[2]; [10]
  IC50: 0.5 nM

## CC(=O)OC1C(=O)C2(C)C(O)CC3OCC3(OC(C)=O)C2C(OC(=O)c2ccccc2)C23OC(=O)OC2C(OC(=O)C(O)C(C=C(C)C)NC(=O)OC(C)(C)C)C(C)=C1C3(C)C (stereo not drawn) [SB-T-101141]
[1]; [6]
  IC50: 36 nM
HT-29 (colon cancer); [7]
  IC50: 2.4 nM
MCF7 (breast cancer); [8]
  IC50: 3.3 nM
A121 (ovarian cancer); [9]
  IC50: 1.5 nM
[2]; [10]
  IC50: 1.4 nM

## CC(=O)OC1C(=O)C2(C)C(O)CC3OCC3(OC(C)=O)C2C(OC(=O)c2ccccc2)C23OC(=O)OC2C(OC(=O)C(O)C(NC(=O)OC(C)(C)C)c2ccco2)C(C)=C1C3(C)C (stereo not drawn) [SB-T-101161]
[1]; [6]
  IC50: 58 nM
HT-29 (colon cancer); [7]
  IC50: 0.6 nM
MCF7 (breast cancer); [8]
  IC50: 0.5 nM
A121 (ovarian cancer); [9]
  IC50: 0.4 nM
[2]; [10]
  IC50: 0.5 nM

## COC(=O)OC1C(=O)C2(C)C(O)CC3OCC3(OC(C)=O)C2C(OC(=O)c2ccccc2)C23OC(=O)OC2C(OC(=O)C(O)C(C=C(C)C)NC(=O)OC(C)(C)C)C(C)=C1C3(C)C (stereo not drawn) [SB-T-101146]
[1]; [6]
  IC50: 38 nM
HT-29 (colon cancer); [7]
  IC50: 0.7 nM
MCF7 (breast cancer); [8]
  IC50: 0.3 nM
A121 (ovarian cancer); [9]
  IC50: 0.6 nM
[2]; [10]
  IC50: 0.5 nM

## CC(=O)O[C@@]12CO[C@@H]1C[C@H](O)[C@@]1(C)C(=O)[C@H](O)C3=C(C)[C@@H](O)[C@H](O)[C@@](O)([C@@H](OC(=O)c4ccccc4)[C@H]21)C3(C)C [14-OH-DAB, 14-Hydroxy-10-deacetylbaccatin III]
[3]
  water solubility: much higher water solubility than the usual 10-deacetylbaccatin III

## CCC(=O)OC1C(=O)C2(C)C(O)CC3OCC3(OC(C)=O)C2C(OC(=O)c2ccccc2)C23OC(=O)OC2C(OC(=O)C(O)C(C=C(C)C)NC(=O)OC(C)(C)C)C(C)=C1C3(C)C (stereo not drawn) [SB-T-101142]
[1]; [6]
  IC50: 21 nM
HT-29 (colon cancer); [7]
  IC50: 0.6 nM
MCF7 (breast cancer); [8]
  IC50: 0.1 nM
A121 (ovarian cancer); [9]
  IC50: 0.7 nM
[2]; [10]
  IC50: 0.5 nM

## CC(=O)OC12COC1CC(O)C1(C)C(=O)C(O)C3=C(C)C(OC(=O)C(O)C(C=C(C)C)NC(=O)OC(C)(C)C)C4OC(=O)OC4(C(OC(=O)c4ccccc4)C21)C3(C)C (stereo not drawn) [SB-T-10114]
[1]; [6]
  IC50: 54 nM
HT-29 (colon cancer); [7]
  IC50: 0.5 nM
MCF7 (breast cancer); [8]
  IC50: 0.5 nM
A121 (ovarian cancer); [9]
  IC50: 1.7 nM
[2]; [10]
  IC50: 0.2 nM

## CC(=O)O[C@H]1C(=O)[C@@]2(C)[C@H]([C@H](OC(=O)c3ccccc3)[C@]3(O)C[C@H](OC(=O)[C@H](O)[C@@H](NC(=O)c4ccccc4)c4ccccc4)C(C)=C1C3(C)C)[C@]1(OC(C)=O)CO[C@@H]1C[C@@H]2O [Paclitaxel, reference compound]
[1]; [6]
  IC50: 300 nM
HT-29 (colon cancer); [7]
  IC50: 3.2 nM
MCF7 (breast cancer); [8]
  IC50: 1.7 nM
[3]; listed as Taxol
  water solubility: limited solubility in aqueous media; also recorded: poor water solubility
A121 (ovarian cancer); [9]
  IC50: 6.1 nM
[2]; [10]
  IC50: 3.6 nM
[5]
  side effects: nerve damage, muscle pain or disturbances in heart rhythm
Different cancers
  cytotoxicity and antitumor activity: high cytotoxicity and strong antitumor activity

## CC=CC(NC(=O)OC(C)(C)C)C(O)C(=O)OC1C(C)=C2C(OC(C)=O)C(=O)C3(C)C(O)CC4OCC4(OC(C)=O)C3C(OC(=O)c3ccccc3)C3(OC(=O)OC13)C2(C)C (stereo not drawn) [SB-T-101151]
[1]; [6]
  IC50: 49 nM
HT-29 (colon cancer); [7]
  IC50: 3 nM
MCF7 (breast cancer); [8]
  IC50: 1.6 nM
A121 (ovarian cancer); [9]
  IC50: 2.4 nM
[2]; [10]
  IC50: 0.4 nM
